# In ChEMBL document CHEMBL1147943, “Antiproliferative activity of 4-chloro-5,6-dihydro-2H-pyrans. Part 2: Enhancement of drug cytotoxicity” (2007):
# Legend:
# Assay type in all cases: functional
# Conditions in all cases: for CC50: read-out: LC50 (the source's name)
# [1] = system: WiDr; experiment: Antiproliferative activity against human WiDr cells
# [2] = system: SW1573; experiment: Antiproliferative activity against human SW1573 cells
# [3] = system: A2780; experiment: Antiproliferative activity against human A2780 cells
Structure (SMILES),GI50 [1] [µM],TGI [1] [µM],GI50 [2] [µM],TGI [2] [µM],CC50 [2] [µM],GI50 [3] [µM],TGI [3] [µM],CC50 [3] [µM],CC50 [1] [µM]
C[C@@H]1O[C@H](C2CCCCC2)C([Si](C)(C)C)=C(Cl)[C@H]1C,42,84,20,41,76,19,38,77,
C[Si](C)(C)C1=C(Cl)C[C@H](C2CCCCC2)O[C@@H]1C1CCCCC1,30,81,23,48,88,22,46,90,97
C[Si](C)(C)C1=C(Cl)C[C@H](Cc2ccccc2)O[C@@H]1CCCCCCCCCC1C=C(Cl)CCO1 (some centres undefined),67,,30,68,,23,47,96,
C=CCC[C@H]1O[C@@H](C)[C@H](C)C(Cl)=C1[Si](C)(C)C,37,,23,55,92,17,36,19,
CC(C)CC1C=C(Cl)CCO1 (centres undefined),> 100,,> 100,,,> 100,,,
C#CCCC1C=C(Cl)CCO1 (centres undefined),> 100,,41,,,37,,,
C[C@H]1CC(Cl)=C([Si](C)(C)C)[C@@H](C2CCCCC2)O1,15,33,16,31,62,17,32,61,74
CC[C@H]1CC(Cl)=C([Si](C)(C)C)[C@@H](C2CCCCC2)O1,29,73,22,49,91,16,35,75,95
ClC1=CC(C2CCCCC2)OCC1 (centres undefined),100,,26,,,20,,,
C[C@@H]1O[C@H](CCC=C(Br)Br)C([Si](C)(C)C)=C(Cl)[C@H]1C,25,90,22,43,87,16,33,70,
C#CCC[C@H]1O[C@@H](C)[C@H](C)C(Cl)=C1[Si](C)(C)C,24,68,19,37,75,21,39,75,85
C[Si](C)(C)C1=C(Cl)C[C@H](Cc2ccccc2)O[C@@H]1C1CCCCC1,62,88,30,,,34,78,,
CC[C@@H](C)[C@H]1O[C@@H](C)CC(Cl)=C1[Si](C)(C)C,> 100,,> 100,,,> 100,,,
ClC1=CC(CCC=C(Br)Br)OCC1 (centres undefined),23,57,30,92,,16,53,76,96
ClC1=CC(CCCCCCCCCCC2C=C(Cl)CCO2)OCC1 (centres undefined),20,61,14,36,85,8.6,25,65,89
C[C@H]1CC(Cl)=C[C@@H](C2CCCCC2)O1,65,,12,43,,19,38,79,
CC(C)CC1OCCC(Cl)=C1[Si](C)(C)C (centres undefined),20,39,10,28,65,27,66,92,79
